tested on: Colon cancer organoid; experiment: Targeting of F14 CAF-induced therapy resistance in O14 CRC organoid-stroma co-culture. Cell viability is reported with Gefitinib.; assay type: functional, Homo sapiens; details: Homo sapiens, Concentration 10 uM; read-out: Cell Viability

Structure (SMILES) | viability at 10 µM [%]
O=C(/C=C/N1C[C@H]2C[C@@H]1CN2c1ccccn1)c1ccccc1O | 70.1
CC(C)[C@H](C(=O)Nc1ccc(C(=O)NO)cc1)c1ccccc1 [AR-42] | 23.6
C[C@H]1CCCN1Cc1nc2cc(NC(=O)c3ccc4cnccc4c3)ccc2[nH]1 | 37.4
CN1CCN(C(=O)C(C)(C)c2ccc(C(=O)Nc3cn4cc(-c5ccncc5)ccc4n3)cc2)CC1 [T3-CLK] | 7.96
O=C1CCc2cc(Nc3cc(OC4CCOCC4)c([N+](=O)[O-])cc3Cl)ccc2N1 | 75.9
NS(=O)(=O)c1cc(NC(=O)C2(c3ccccc3Cl)CC2)ccc1Oc1cccc(Cl)c1 [BAY-207] | 34.8
CC1=CC(C)=[N+]2C1=C(CCCCc1cn(CC(=O)N3CCc4nc(NC(=O)[C@H]5CCN(C#N)C5)sc4C3)nn1)c1c(C)cc(C)n1[B-]2(F)F | 31.6
COc1cc(C#N)ccc1S(=O)(=O)Nc1ccc2c(c1)cc(C)c(=O)n2C | 66.9
O=C1c2ccc(Nc3ccc(F)cc3F)cc2CCc2ccc(OC[C@H](O)CO)cc21 [Skepinone-L] | 56.2
Clc1cc2c(NC3CCCC3)nnc(-c3ccncc3)c2cc1Cl | 65.8
CCCc1cc(C)[nH]c(=O)c1CNC(=O)c1cc(-c2ccnc(N3CCN(C)CC3)c2)cc2c1cnn2C(C)C | 63.9
CC1=C(C)C(=O)C(C(C)(C)CC(=O)N(CCCCSC[C@H]2O[C@@H](n3cnc4c(N)ncnc43)[C@@H]3OC(C)(C)O[C@@H]32)Cc2cccc(-c3ccc(Cl)cc3)c2)=C(C)C1=O | 66.1
Cc1nc(C2CCN(C(=O)c3ccc(OC(F)(F)F)cc3N)CC2)c2ncc(N3CCN(C)CC3)cc2n1 [BAY-693] | 32.1
COc1cc2c(cc1NS(=O)(=O)c1ccc(Br)cc1C)n(C)c(=O)n2C | 57.4
CCNC(=O)c1cc2c(N3CCOCC3C)ccnc2[nH]1 (stereo not given) | 55.4
CO[C@@H](C)c1c(Nc2ccc([C@@H](N(C)C(=O)C3CCS(=O)(=O)CC3)C(F)(F)F)cc2)cnc2cc(Cl)nn12 [NVS-MALT1-C] | 34.3
CCOC(=O)Nc1cc(-c2ccc(C)c(NS(C)(=O)=O)c2)nn2c(C)nnc12 | 14
O=C1NC(c2ccccn2)Sc2ccccc21 (stereo not given) [BTZO-4] | 48.9
Cc1sc2c(c1C)C(c1ccc(Cl)cc1)=N[C@H](CC(=O)OC(C)(C)C)c1nnc(C)n1-2 | 55.8
O=C(O)c1ccc(-c2coc3ncc(-c4ccccc4)cc23)cc1Cl | 73.9

tested on: Colon cancer organoid; experiment: Targeting of F14 CAF-induced therapy resistance in O23 CRC organoid-stroma co-culture. Cell viability is reported without Gefitinib.; assay type: functional, Homo sapiens; details: Homo sapiens, Concentration 10 uM; read-out: Cell Viability

Structure (SMILES) | viability at 10 µM [%]
O=C(/C=C/N1C[C@H]2C[C@@H]1CN2c1ccccn1)c1ccccc1O | 77.2
CC(C)[C@H](C(=O)Nc1ccc(C(=O)NO)cc1)c1ccccc1 [AR-42] | 210
C[C@H]1CCCN1Cc1nc2cc(NC(=O)c3ccc4cnccc4c3)ccc2[nH]1 | 68.1
CN1CCN(C(=O)C(C)(C)c2ccc(C(=O)Nc3cn4cc(-c5ccncc5)ccc4n3)cc2)CC1 [T3-CLK] | 27.9
O=C1CCc2cc(Nc3cc(OC4CCOCC4)c([N+](=O)[O-])cc3Cl)ccc2N1 | 117
NS(=O)(=O)c1cc(NC(=O)C2(c3ccccc3Cl)CC2)ccc1Oc1cccc(Cl)c1 [BAY-207] | 78.6
CC1=CC(C)=[N+]2C1=C(CCCCc1cn(CC(=O)N3CCc4nc(NC(=O)[C@H]5CCN(C#N)C5)sc4C3)nn1)c1c(C)cc(C)n1[B-]2(F)F | 101
COc1cc(C#N)ccc1S(=O)(=O)Nc1ccc2c(c1)cc(C)c(=O)n2C | 149
O=C1c2ccc(Nc3ccc(F)cc3F)cc2CCc2ccc(OC[C@H](O)CO)cc21 [Skepinone-L] | 143
Clc1cc2c(NC3CCCC3)nnc(-c3ccncc3)c2cc1Cl | 142
CCCc1cc(C)[nH]c(=O)c1CNC(=O)c1cc(-c2ccnc(N3CCN(C)CC3)c2)cc2c1cnn2C(C)C | 119
CC1=C(C)C(=O)C(C(C)(C)CC(=O)N(CCCCSC[C@H]2O[C@@H](n3cnc4c(N)ncnc43)[C@@H]3OC(C)(C)O[C@@H]32)Cc2cccc(-c3ccc(Cl)cc3)c2)=C(C)C1=O | 8.34
Cc1nc(C2CCN(C(=O)c3ccc(OC(F)(F)F)cc3N)CC2)c2ncc(N3CCN(C)CC3)cc2n1 [BAY-693] | 119
COc1cc2c(cc1NS(=O)(=O)c1ccc(Br)cc1C)n(C)c(=O)n2C | 169
CCNC(=O)c1cc2c(N3CCOCC3C)ccnc2[nH]1 (stereo not given) | 156
CO[C@@H](C)c1c(Nc2ccc([C@@H](N(C)C(=O)C3CCS(=O)(=O)CC3)C(F)(F)F)cc2)cnc2cc(Cl)nn12 [NVS-MALT1-C] | 119
CCOC(=O)Nc1cc(-c2ccc(C)c(NS(C)(=O)=O)c2)nn2c(C)nnc12 | 146
O=C1NC(c2ccccn2)Sc2ccccc21 (stereo not given) [BTZO-4] | 142
Cc1sc2c(c1C)C(c1ccc(Cl)cc1)=N[C@H](CC(=O)OC(C)(C)C)c1nnc(C)n1-2 | 130
O=C(O)c1ccc(-c2coc3ncc(-c4ccccc4)cc23)cc1Cl | 214

tested on: Colon cancer organoid; experiment: Targeting of F14 CAF-induced therapy resistance in O23 CRC organoid-stroma co-culture. Cell viability is reported with Gefitinib.; assay type: functional, Homo sapiens; details: Homo sapiens, Concentration 10 uM; read-out: Cell Viability

Structure (SMILES) | viability at 10 µM [%]
O=C(/C=C/N1C[C@H]2C[C@@H]1CN2c1ccccn1)c1ccccc1O | 38.6
CC(C)[C@H](C(=O)Nc1ccc(C(=O)NO)cc1)c1ccccc1 [AR-42] | 263
C[C@H]1CCCN1Cc1nc2cc(NC(=O)c3ccc4cnccc4c3)ccc2[nH]1 | 26.6
CN1CCN(C(=O)C(C)(C)c2ccc(C(=O)Nc3cn4cc(-c5ccncc5)ccc4n3)cc2)CC1 [T3-CLK] | 12.1
O=C1CCc2cc(Nc3cc(OC4CCOCC4)c([N+](=O)[O-])cc3Cl)ccc2N1 | 57.9
NS(=O)(=O)c1cc(NC(=O)C2(c3ccccc3Cl)CC2)ccc1Oc1cccc(Cl)c1 [BAY-207] | 42.5
CC1=CC(C)=[N+]2C1=C(CCCCc1cn(CC(=O)N3CCc4nc(NC(=O)[C@H]5CCN(C#N)C5)sc4C3)nn1)c1c(C)cc(C)n1[B-]2(F)F | 36.4
COc1cc(C#N)ccc1S(=O)(=O)Nc1ccc2c(c1)cc(C)c(=O)n2C | 86
O=C1c2ccc(Nc3ccc(F)cc3F)cc2CCc2ccc(OC[C@H](O)CO)cc21 [Skepinone-L] | 72.8
Clc1cc2c(NC3CCCC3)nnc(-c3ccncc3)c2cc1Cl | 72.9
CCCc1cc(C)[nH]c(=O)c1CNC(=O)c1cc(-c2ccnc(N3CCN(C)CC3)c2)cc2c1cnn2C(C)C | 74.3
CC1=C(C)C(=O)C(C(C)(C)CC(=O)N(CCCCSC[C@H]2O[C@@H](n3cnc4c(N)ncnc43)[C@@H]3OC(C)(C)O[C@@H]32)Cc2cccc(-c3ccc(Cl)cc3)c2)=C(C)C1=O | 7.29
Cc1nc(C2CCN(C(=O)c3ccc(OC(F)(F)F)cc3N)CC2)c2ncc(N3CCN(C)CC3)cc2n1 [BAY-693] | 46.5
COc1cc2c(cc1NS(=O)(=O)c1ccc(Br)cc1C)n(C)c(=O)n2C | 69.8
CCNC(=O)c1cc2c(N3CCOCC3C)ccnc2[nH]1 (stereo not given) | 56.4
CO[C@@H](C)c1c(Nc2ccc([C@@H](N(C)C(=O)C3CCS(=O)(=O)CC3)C(F)(F)F)cc2)cnc2cc(Cl)nn12 [NVS-MALT1-C] | 70.3
CCOC(=O)Nc1cc(-c2ccc(C)c(NS(C)(=O)=O)c2)nn2c(C)nnc12 | 63.4
O=C1NC(c2ccccn2)Sc2ccccc21 (stereo not given) [BTZO-4] | 56.6
Cc1sc2c(c1C)C(c1ccc(Cl)cc1)=N[C@H](CC(=O)OC(C)(C)C)c1nnc(C)n1-2 | 72
O=C(O)c1ccc(-c2coc3ncc(-c4ccccc4)cc23)cc1Cl | 172

tested on: Colon cancer organoid; experiment: Targeting of F14 CAF-induced therapy resistance in O23 CRC organoid-stroma co-culture. Cell viability is reported with SN-38.; assay type: functional, Homo sapiens; details: Homo sapiens, Concentration 10 uM; read-out: Cell Viability

Structure (SMILES) | viability at 10 µM [%]
O=C(/C=C/N1C[C@H]2C[C@@H]1CN2c1ccccn1)c1ccccc1O | 45.4
CC(C)[C@H](C(=O)Nc1ccc(C(=O)NO)cc1)c1ccccc1 [AR-42] | 131
C[C@H]1CCCN1Cc1nc2cc(NC(=O)c3ccc4cnccc4c3)ccc2[nH]1 | 43.3
CN1CCN(C(=O)C(C)(C)c2ccc(C(=O)Nc3cn4cc(-c5ccncc5)ccc4n3)cc2)CC1 [T3-CLK] | 18.9
O=C1CCc2cc(Nc3cc(OC4CCOCC4)c([N+](=O)[O-])cc3Cl)ccc2N1 | 60.5
NS(=O)(=O)c1cc(NC(=O)C2(c3ccccc3Cl)CC2)ccc1Oc1cccc(Cl)c1 [BAY-207] | 61
CC1=CC(C)=[N+]2C1=C(CCCCc1cn(CC(=O)N3CCc4nc(NC(=O)[C@H]5CCN(C#N)C5)sc4C3)nn1)c1c(C)cc(C)n1[B-]2(F)F | 52.6
COc1cc(C#N)ccc1S(=O)(=O)Nc1ccc2c(c1)cc(C)c(=O)n2C | 127
O=C1c2ccc(Nc3ccc(F)cc3F)cc2CCc2ccc(OC[C@H](O)CO)cc21 [Skepinone-L] | 77.4
Clc1cc2c(NC3CCCC3)nnc(-c3ccncc3)c2cc1Cl | 114
CCCc1cc(C)[nH]c(=O)c1CNC(=O)c1cc(-c2ccnc(N3CCN(C)CC3)c2)cc2c1cnn2C(C)C | 94.5
CC1=C(C)C(=O)C(C(C)(C)CC(=O)N(CCCCSC[C@H]2O[C@@H](n3cnc4c(N)ncnc43)[C@@H]3OC(C)(C)O[C@@H]32)Cc2cccc(-c3ccc(Cl)cc3)c2)=C(C)C1=O | 9.16
Cc1nc(C2CCN(C(=O)c3ccc(OC(F)(F)F)cc3N)CC2)c2ncc(N3CCN(C)CC3)cc2n1 [BAY-693] | 53.6
COc1cc2c(cc1NS(=O)(=O)c1ccc(Br)cc1C)n(C)c(=O)n2C | 117
CCNC(=O)c1cc2c(N3CCOCC3C)ccnc2[nH]1 (stereo not given) | 97.3
CO[C@@H](C)c1c(Nc2ccc([C@@H](N(C)C(=O)C3CCS(=O)(=O)CC3)C(F)(F)F)cc2)cnc2cc(Cl)nn12 [NVS-MALT1-C] | 82.8
CCOC(=O)Nc1cc(-c2ccc(C)c(NS(C)(=O)=O)c2)nn2c(C)nnc12 | 79.5
O=C1NC(c2ccccn2)Sc2ccccc21 (stereo not given) [BTZO-4] | 100
Cc1sc2c(c1C)C(c1ccc(Cl)cc1)=N[C@H](CC(=O)OC(C)(C)C)c1nnc(C)n1-2 | 73.3
O=C(O)c1ccc(-c2coc3ncc(-c4ccccc4)cc23)cc1Cl | 103

tested on: Colon cancer organoid; experiment: Targeting of F14 CAF-induced therapy resistance in O14 CRC organoid-stroma co-culture. Cell viability is reported without Gefitinib.; assay type: functional, Homo sapiens; details: Homo sapiens, Concentration 10 uM; read-out: Cell Viability

Structure (SMILES) | viability at 10 µM [%]
O=C(/C=C/N1C[C@H]2C[C@@H]1CN2c1ccccn1)c1ccccc1O | 109
CC(C)[C@H](C(=O)Nc1ccc(C(=O)NO)cc1)c1ccccc1 [AR-42] | 34.5
C[C@H]1CCCN1Cc1nc2cc(NC(=O)c3ccc4cnccc4c3)ccc2[nH]1 | 53.7
CN1CCN(C(=O)C(C)(C)c2ccc(C(=O)Nc3cn4cc(-c5ccncc5)ccc4n3)cc2)CC1 [T3-CLK] | 38.4
O=C1CCc2cc(Nc3cc(OC4CCOCC4)c([N+](=O)[O-])cc3Cl)ccc2N1 | 112
NS(=O)(=O)c1cc(NC(=O)C2(c3ccccc3Cl)CC2)ccc1Oc1cccc(Cl)c1 [BAY-207] | 86.8
CC1=CC(C)=[N+]2C1=C(CCCCc1cn(CC(=O)N3CCc4nc(NC(=O)[C@H]5CCN(C#N)C5)sc4C3)nn1)c1c(C)cc(C)n1[B-]2(F)F | 115
COc1cc(C#N)ccc1S(=O)(=O)Nc1ccc2c(c1)cc(C)c(=O)n2C | 101
O=C1c2ccc(Nc3ccc(F)cc3F)cc2CCc2ccc(OC[C@H](O)CO)cc21 [Skepinone-L] | 153
Clc1cc2c(NC3CCCC3)nnc(-c3ccncc3)c2cc1Cl | 91.2
CCCc1cc(C)[nH]c(=O)c1CNC(=O)c1cc(-c2ccnc(N3CCN(C)CC3)c2)cc2c1cnn2C(C)C | 73
CC1=C(C)C(=O)C(C(C)(C)CC(=O)N(CCCCSC[C@H]2O[C@@H](n3cnc4c(N)ncnc43)[C@@H]3OC(C)(C)O[C@@H]32)Cc2cccc(-c3ccc(Cl)cc3)c2)=C(C)C1=O | 121
Cc1nc(C2CCN(C(=O)c3ccc(OC(F)(F)F)cc3N)CC2)c2ncc(N3CCN(C)CC3)cc2n1 [BAY-693] | 76.4
COc1cc2c(cc1NS(=O)(=O)c1ccc(Br)cc1C)n(C)c(=O)n2C | 86.7
CCNC(=O)c1cc2c(N3CCOCC3C)ccnc2[nH]1 (stereo not given) | 130
CO[C@@H](C)c1c(Nc2ccc([C@@H](N(C)C(=O)C3CCS(=O)(=O)CC3)C(F)(F)F)cc2)cnc2cc(Cl)nn12 [NVS-MALT1-C] | 84.5
CCOC(=O)Nc1cc(-c2ccc(C)c(NS(C)(=O)=O)c2)nn2c(C)nnc12 | 59.2
O=C1NC(c2ccccn2)Sc2ccccc21 (stereo not given) [BTZO-4] | 112
Cc1sc2c(c1C)C(c1ccc(Cl)cc1)=N[C@H](CC(=O)OC(C)(C)C)c1nnc(C)n1-2 | 103
O=C(O)c1ccc(-c2coc3ncc(-c4ccccc4)cc23)cc1Cl | 71.5

— ChEMBL document CHEMBL5608113, “Targeting of CAF-induced therapy resistance in CRC organoid-stroma co-cultures” (2024)
